This is an account of results in patent publication US20250161319A1, “USE OF HPK1 INHIBITOR IN TREATMENT OF INTERFERON-RELATED DISEASES” (priority 2022, published 2025).

One may read the MTD as the highest dose tested that stayed within the study's limit of toxicity.

Data set [1] deals with T1, HPK1 (Homo sapiens (Human), UniProt Q92918). Put plainly: Inhibition of HPK1 kinase activity in vitro (ADP-Glo), compounds of Formula I-1. It counts as biochemical. Particulars: MBP substrate. The protocol: The starting concentration for all tested compounds was 10 μM, and diluted in three-fold concentration gradient for a total of 10 concentration points in duplicate.
T1 sequence (Q92918 whole entry): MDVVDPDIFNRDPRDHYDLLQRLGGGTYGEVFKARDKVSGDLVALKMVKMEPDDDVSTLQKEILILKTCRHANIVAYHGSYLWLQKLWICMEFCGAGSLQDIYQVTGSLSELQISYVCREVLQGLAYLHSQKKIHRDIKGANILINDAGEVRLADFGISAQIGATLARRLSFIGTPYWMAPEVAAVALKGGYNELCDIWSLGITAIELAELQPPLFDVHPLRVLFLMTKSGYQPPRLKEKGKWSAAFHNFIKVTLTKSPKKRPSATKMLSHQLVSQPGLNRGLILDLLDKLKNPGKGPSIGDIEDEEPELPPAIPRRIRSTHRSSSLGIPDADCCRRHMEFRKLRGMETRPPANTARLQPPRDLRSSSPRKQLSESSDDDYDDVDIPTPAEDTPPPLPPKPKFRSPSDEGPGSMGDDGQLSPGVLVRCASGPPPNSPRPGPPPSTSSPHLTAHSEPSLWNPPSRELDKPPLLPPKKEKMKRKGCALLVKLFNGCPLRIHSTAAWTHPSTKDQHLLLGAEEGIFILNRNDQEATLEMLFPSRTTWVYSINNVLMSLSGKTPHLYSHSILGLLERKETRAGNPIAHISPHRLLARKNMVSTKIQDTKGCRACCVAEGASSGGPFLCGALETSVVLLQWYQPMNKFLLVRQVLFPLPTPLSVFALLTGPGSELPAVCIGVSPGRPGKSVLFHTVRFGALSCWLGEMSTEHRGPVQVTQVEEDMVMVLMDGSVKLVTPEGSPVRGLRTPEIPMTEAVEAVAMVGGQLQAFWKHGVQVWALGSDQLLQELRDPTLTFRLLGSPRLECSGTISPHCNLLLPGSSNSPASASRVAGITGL
Before the experiment, 50 μM DTT and the enzymatic reaction system buffer were prepared.
The compound dilution was transferred into 384-well plate by using a pipette, afterwards, the 384-well plate was sealed and centrifuged at 1000 g for 1 min. 2-fold concentration of HPK1 solution was prepared in the kinase buffer, and then 2.5 μL of the prepared 2-fold concentration of HPK1 solution was added into the 384 wells, centrifuged at 1000 g for 30 s, and incubated for 10 min at room temperature. A mixture of 2-fold concentration of MBP and ATP was prepare in the kinase buffer, and […] of prepared mixture of 2-fold concentration of MBP and ATP was added into the above reaction system for the reaction, centrifuged at 1000 g for 30 s, and then incubated at room temperature for 1 h, 5 μL of ADP-Glo reagent was added into the reaction system, and incubated at room temperature for 40 min. 10 μL of kinase detection reagent was added and incubated at room temperature for 40 min.
In the above formula, cmpd refers to the tested compound, PC refers to the positive control, and VC refers to the negative control.

The target of data set [2] is T2, GCK (Homo sapiens (Human), UniProt Q12851). Put plainly: In vitro enzyme activity, ADP-Glo method (Example 3). It counts as biochemical. Particulars: recombinant protein, read-out: GCK inhibiting activity level (IC50). The protocol: (§1) ADP-Glo™ Kinase Assay is a luminescent ADP assay that provides a versatile, homogeneous, high-throughput screening method to measure kinase activity by quantifying the amount of ADP produced during the kinase reaction. The assay was performed in two steps; first, after the kinase reaction, an equal volume of ADP-Glo™ Reagent was added to quench the kinase reaction and consume the remaining ATP. Second, the Kinase Assay Reagent was added to concurrently convert ADP to ATP and allow measurement of newly synthesized ATP using the luciferase/luciferin reaction. The light produced was measured using a photometer. Luminescence can be correlated with ADP concentration by using an ATP to ADP conversion curve. […] Meanwhile, better selectivity was shown on kinases with closer homology such as GCK/TNIK/PDK1.
T2 sequence (Q12851 whole entry): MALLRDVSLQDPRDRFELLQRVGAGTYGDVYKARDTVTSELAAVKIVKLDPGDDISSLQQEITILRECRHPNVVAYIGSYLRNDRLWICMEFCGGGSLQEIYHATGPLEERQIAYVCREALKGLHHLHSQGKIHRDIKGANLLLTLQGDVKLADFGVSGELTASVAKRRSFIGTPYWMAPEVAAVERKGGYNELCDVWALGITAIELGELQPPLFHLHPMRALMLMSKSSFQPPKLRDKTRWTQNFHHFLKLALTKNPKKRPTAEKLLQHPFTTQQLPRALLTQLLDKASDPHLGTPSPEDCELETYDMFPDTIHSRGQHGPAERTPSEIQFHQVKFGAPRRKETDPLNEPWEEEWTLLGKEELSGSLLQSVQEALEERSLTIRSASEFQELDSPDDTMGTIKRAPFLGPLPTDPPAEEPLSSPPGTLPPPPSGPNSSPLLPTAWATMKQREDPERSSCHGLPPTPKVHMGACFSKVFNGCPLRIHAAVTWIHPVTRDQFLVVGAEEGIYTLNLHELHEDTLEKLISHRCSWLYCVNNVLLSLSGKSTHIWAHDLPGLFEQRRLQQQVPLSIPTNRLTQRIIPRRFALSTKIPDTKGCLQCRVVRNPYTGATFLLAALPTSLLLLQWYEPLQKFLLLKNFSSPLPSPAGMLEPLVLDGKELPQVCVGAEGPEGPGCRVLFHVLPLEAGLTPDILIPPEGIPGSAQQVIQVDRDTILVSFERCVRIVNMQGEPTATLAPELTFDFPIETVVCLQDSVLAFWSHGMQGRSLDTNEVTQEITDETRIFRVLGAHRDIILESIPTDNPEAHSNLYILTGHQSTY
Background: In ADP-Glo the light output rises with the ADP produced.

In data set [3] the target is T1, HPK1. The data set is described as above. The class given is biochemical. Particulars: recombinant protein, read-out: HPK1 inhibiting activity level (IC50). The protocol: as §1
Data set [4] addresses T3, PDK1 (Homo sapiens (Human), UniProt O15530). Described as above. The class given is biochemical. Particulars: recombinant protein, read-out: PDK1 inhibiting activity level (IC50). How it is done: as §1
Data set [5] concerns the target T4, TNIK (Homo sapiens (Human), UniProt Q9UKE5). The description is as above. It counts as biochemical. Particulars: recombinant protein, read-out: TNIK inhibiting activity level (IC50). The protocol: as §1
Target sequence in this assay (Q9UKE5 whole entry, species assumed): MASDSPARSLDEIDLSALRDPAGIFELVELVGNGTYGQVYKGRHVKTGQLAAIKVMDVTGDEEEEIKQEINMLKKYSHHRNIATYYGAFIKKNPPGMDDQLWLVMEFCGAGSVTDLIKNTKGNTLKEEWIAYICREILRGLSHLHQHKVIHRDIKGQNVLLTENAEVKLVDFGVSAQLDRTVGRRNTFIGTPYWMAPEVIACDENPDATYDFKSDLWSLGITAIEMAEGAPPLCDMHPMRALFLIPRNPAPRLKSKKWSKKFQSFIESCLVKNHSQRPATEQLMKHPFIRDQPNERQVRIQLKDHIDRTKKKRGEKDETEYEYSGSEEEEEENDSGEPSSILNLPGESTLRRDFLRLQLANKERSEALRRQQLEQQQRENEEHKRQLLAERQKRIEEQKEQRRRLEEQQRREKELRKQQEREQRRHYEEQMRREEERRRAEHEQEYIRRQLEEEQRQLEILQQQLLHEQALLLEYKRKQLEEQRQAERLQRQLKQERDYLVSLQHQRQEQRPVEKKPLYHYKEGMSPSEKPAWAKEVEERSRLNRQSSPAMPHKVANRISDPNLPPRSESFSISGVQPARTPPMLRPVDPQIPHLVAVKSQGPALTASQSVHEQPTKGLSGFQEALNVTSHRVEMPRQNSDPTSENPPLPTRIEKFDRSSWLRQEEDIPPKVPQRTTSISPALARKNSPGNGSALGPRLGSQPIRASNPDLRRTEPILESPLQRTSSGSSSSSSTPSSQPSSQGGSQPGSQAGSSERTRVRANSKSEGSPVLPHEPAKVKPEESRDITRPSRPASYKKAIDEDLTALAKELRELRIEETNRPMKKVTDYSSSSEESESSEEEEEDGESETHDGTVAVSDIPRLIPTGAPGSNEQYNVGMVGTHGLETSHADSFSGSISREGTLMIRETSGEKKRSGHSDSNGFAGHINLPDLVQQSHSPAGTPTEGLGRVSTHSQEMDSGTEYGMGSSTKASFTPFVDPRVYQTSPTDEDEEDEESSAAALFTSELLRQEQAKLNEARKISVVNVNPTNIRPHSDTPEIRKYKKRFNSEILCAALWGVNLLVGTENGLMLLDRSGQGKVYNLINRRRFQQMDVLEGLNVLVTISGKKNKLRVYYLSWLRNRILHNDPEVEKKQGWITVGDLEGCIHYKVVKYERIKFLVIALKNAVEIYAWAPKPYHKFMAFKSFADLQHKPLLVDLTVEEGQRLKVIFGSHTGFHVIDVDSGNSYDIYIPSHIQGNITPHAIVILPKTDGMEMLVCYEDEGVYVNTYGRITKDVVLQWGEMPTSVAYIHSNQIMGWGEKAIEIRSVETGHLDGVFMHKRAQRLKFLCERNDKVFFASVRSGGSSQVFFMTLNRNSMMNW
Data set [6] in a line: Oral maximum tolerated dose / oral acute toxicity test in mice. The class given is in vivo. The note with it: for Death, Female mice / Death, Male mice: P.O.; for MTD: mouse, in vivo, po, mice, single dose. The source says: The inventors tested representative compounds for oral maximum tolerated dose in mice.
Data set [7] has as its system Feline Infectious Peritonitis. Put plainly: Animal clinical trial in cats with Feline Infectious Peritonitis. The class given is in vivo. Particulars: 20 days; for ALB/GLB, After treatment / Feline serum amyloid A (fSAA, mg/L), After treatment: 1.5 mg/kg twice a day; for body weight (kg), After treatment: injection 1.5 mg/kg twice a day. The source says:
Therefore, the inventors hypothesized that HPK1 inhibitors might have therapeutic effects on Feline Infectious Peritonitis. To validate this hypothesis, the inventors conducted an animal clinical trial. Three animals were included in the experiment, all of them suffered from Feline Infectious Peritonitis, aged between 5-12 months, one was female and the other two were male (Table 4).

Data set [8] deals with T1, HPK1. Put plainly: Inhibition of HPK1 kinase activity in vitro (ADP-Glo), compounds of Formula I-2. The class given is biochemical. The note with it: ADP-Glo; read-out: Activity/IC50, nM HPK1. The protocol:
The starting concentration for all tested compounds was 10 μM, and diluted in three-fold concentration gradient for a total of 10 concentration points in duplicate. Before the experiment, 50 μM DTT and the enzymatic reaction system buffer were prepared. […] A mixture of 2-fold concentration of MBP and ATP was prepare in the kinase buffer, and 2.5 μL of prepared mixture of 2-fold concentration of MBP and ATP was added into the above reaction system for the reaction, centrifuged at 1000 g for 30 s, and then incubated at room temperature for 1 h. 5 μL of ADP-Glo reagent was added into the reaction system, and incubated at room temperature for 40 min. 10 μL of kinase detection reagent was added and incubated at room temperature for 40 min. […] In the above formula, empd refers to the tested compound, PC refers to the positive control, and VC refers to the negative control.

Data set [9] concerns the target T2, GCK. Kind of data set: Inhibition of GCK kinase activity in vitro (ADP-Glo). Particulars: ADP-Glo; read-out: Activity/IC50, nM GCK. The class given is biochemical. How it is done:
(§2) The starting concentration for all tested compounds was 10 μM, and diluted in three-fold concentration gradient for a total of 10 concentration points in duplicate. […] A mixture of 2-fold concentration of MBP and ATP was prepare in the kinase buffer, and 2.5 μL of prepared mixture of 2-fold concentration of MBP and ATP was added into the above reaction system for the reaction, centrifuged at 1000 g for 30 s, and then incubated at room temperature for 1 h. 5 μL of ADP-Glo reagent was added into the reaction system, and incubated at room temperature for 40 min. 10 μL of kinase detection reagent was added and incubated at room temperature for 40 min.

Data set [10] deals with T4, TNIK. Put plainly: Inhibition of TNIK kinase activity in vitro (ADP-Glo). The class given is biochemical. The note with it: ADP-Glo; read-out: Activity/IC50, nM TNIK. How it is done:
as §2
Target sequence in this assay (Q9UKE5 whole entry): as the sequence (Q9UKE5 whole entry, species assumed) above

For data set [11], the target named is T3, PDK1. Kind of data set: Inhibition of PDK1 kinase activity in vitro (ADP-Glo). Particulars: ADP-Glo; read-out: Activity/IC50, nM PDK1. It counts as biochemical. How it is done: as §2

T3 sequence (O15530 whole entry): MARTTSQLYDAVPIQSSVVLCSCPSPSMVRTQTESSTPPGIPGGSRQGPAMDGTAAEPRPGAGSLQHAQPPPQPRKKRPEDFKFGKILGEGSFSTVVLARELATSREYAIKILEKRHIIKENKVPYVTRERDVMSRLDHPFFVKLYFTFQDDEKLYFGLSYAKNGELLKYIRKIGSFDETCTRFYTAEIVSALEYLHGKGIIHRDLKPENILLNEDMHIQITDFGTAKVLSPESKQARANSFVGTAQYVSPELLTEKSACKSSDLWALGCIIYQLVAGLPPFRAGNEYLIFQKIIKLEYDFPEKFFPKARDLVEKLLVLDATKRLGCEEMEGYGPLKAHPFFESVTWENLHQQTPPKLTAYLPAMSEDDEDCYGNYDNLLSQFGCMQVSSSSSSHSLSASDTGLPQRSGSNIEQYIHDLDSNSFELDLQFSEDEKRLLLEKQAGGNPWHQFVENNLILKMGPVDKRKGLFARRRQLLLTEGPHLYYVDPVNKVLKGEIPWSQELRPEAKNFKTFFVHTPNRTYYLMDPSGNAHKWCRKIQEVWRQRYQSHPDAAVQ

Take `CN1CCC(n2cc(Nc3ncc4cccc(O[C@H]5CC[C@@H](N)CC5)c4n3)cn2)CC1` [Example 1, 8-(((1s,4s)-4-aminocyclohexyl)oxo)-N-(1-(1-methylpiperidin-4-yl)-1H-pyrazol-4-yl)quinazolin-2-amine]: the IC50 against HPK1 [1] was < 0.05 µM.
`CN1CCN(c2ccc(Nc3ncc4cccc(OC5CCC(O)CC5)c4n3)cc2)CC1` (centres unmarked) [Example 4]: at HPK1 [1], the IC50 was < 0.05 µM.
Turning to `CN1CCC(n2cc(Nc3ncc4cccc(O[C@H]5CC[C@H](N)CC5)c4n3)cn2)CC1` [Compound C1], the IC50 on GCK [2] is 0.01 to 0.1 µM; on HPK1 [3], ≤ 0.01 µM; at PDK1 [4], 0.1 to 1 µM; at TNIK [5], 0.1 to 1 µM. Moreover, the “Death, Female mice” value was 0/5 in data set [6] (225 mg/kg); 0/5 in data set [6] (337.5 mg/kg); 1/5 in data set [6] (506.3 mg/kg); 4/5 in [6] (759.4 mg/kg); 5/5 in [6] (1139.1 mg/kg). Further, the “Death, Male mice” value is reported as 0/5 in data set [6] (225 mg/kg); 0/5 in [6] (337.5 mg/kg); 2/5 in [6] (506.3 mg/kg); 4/5 in data set [6] (759.4 mg/kg); 5/5 in data set [6] (1139.1 mg/kg). The MTD in [6] came to 338 mg/kg. Further, the “ALB/GLB, After treatment” value amounted to 0.7 in data set [7] (Animal No. 1, before treatment 0.5); 0.47 in data set [7] (Animal No. 2, before treatment 0.35); 0.5 in data set [7] (Animal No. 3, before treatment 0.4). Further, the “body weight (kg), After treatment” value amounted to 2.15 kg in data set [7] (Animal No. 1, before treatment 1.5); 2.81 kg in data set [7] (Animal No. 2, before treatment 2.31); 3.2 kg in data set [7] (Animal No. 3, before treatment 2.9). For the same compound, the “Feline serum amyloid A (fSAA, mg/L), After treatment” value came to 15.14 mg/L in data set [7] (Animal No. 2, before treatment 70.47) and 17.97 mg/L in data set [7] (Animal No. 3, before treatment 104.88).
`CN1CCC(NC(=O)c2ccc(Nc3ncc4cccc(OC5CCC(O)CC5)c4n3)cc2)CC1` (centres unmarked) [Example 8, 4-((8-((4-hydroxycyclohexyl)oxo)quinazolin-2-yl)amino)-N-(1-methylpiperidin-4-yl)benzamide]: the IC50 on HPK1 [1] was < 0.05 µM.
As to `CN1CCC(n2cc(Nc3ncc4cccc(OC5CCC(O)CC5)c4n3)cn2)CC1` (centres unmarked) [Example 3, 4-((2-((1-(1-methylpiperidin-4-yl)-1H-pyrazol-4-yl)amino)quinazolin-8-yl)oxo)cyclohexan-1-ol], at HPK1 [1], the IC50 was < 0.05 µM.
The same measure, in the same setting: with `NS(=O)(=O)c1ccc(Nc2ncc3cccc(OC4CCC(O)C4)c3n2)cc1` (centres unmarked) [Example 9, 4-((8-((3-hydroxycyclopentyl)oxo)quinazolin-2-yl)amino)benzenesulfonamide] the figure was < 0.3 µM.
On to `Cn1cccc1-c1cc2cc(NC(=O)C3C[C@H]3F)ncc2c(N)c1F` (some centres unmarked) [Compound C5], for which the IC50 is ≤ 0.01 µM at GCK [2], ≤ 0.01 µM on HPK1 [3], > 1 µM at PDK1 [4] and 0.01 to 0.1 µM at TNIK [5].
With `CN1CCC(n2cc(Nc3ncc4cccc(O[C@H]5CC[C@@H](N)CC5)c4n3)cn2)CC1` [Compound C2], the IC50 is 0.01 to 0.1 µM on GCK [2], ≤ 0.01 µM on HPK1 [3], 0.1 to 1 µM at PDK1 [4] and 0.1 to 1 µM at TNIK [5].
On to `CN1CCN(c2ccc(Nc3ncc4cccc(O[C@H]5CC[C@H](O)CC5)c4n3)cc2)CC1` [Compound C3], for which the IC50 is 0.01 to 0.1 µM at GCK [2], 0.01 to 0.1 µM at HPK1 [3], > 1 µM on PDK1 [4] and 0.01 to 0.1 µM on TNIK [5]. Also, the “Death, Female mice” value in data set [6] (225 mg/kg) was 0/5; in data set [6] (337.5 mg/kg) it was 2/5; in [6] (506.3 mg/kg), 2/5; in data set [6] (759.4 mg/kg) it was 5/5; in data set [6] (1139.1 mg/kg), 5/5. Also, the “Death, Male mice” value is 0/5 in data set [6] (225 mg/kg); 1/5 in [6] (337.5 mg/kg); 3/5 in data set [6] (506.3 mg/kg); 3/5 in [6] (759.4 mg/kg); 5/5 in data set [6] (1139.1 mg/kg). The same compound yielded an MTD in data set [6] of 225 mg/kg.
For the compound `NS(=O)(=O)c1cccc(Nc2ncc3cccc(OC4CCC(O)CC4)c3n2)c1` (centres unmarked) [Example 10, 3-((8-((4-hydroxycyclohexyl)oxo)quinazolin-2-yl)amino)benzenesulfonamide], on HPK1 [1], the IC50 is > 0.3 µM.
On the same count and under the same terms, with “4-((2-((4-((2-(dimethylamino)ethyl)(methyl)amino)phenyl)amino)quinazolin-8-yl)oxo)cyclohexan-1-ol [Example 2]” the figure was < 0.05 µM.
In the case of `Cn1cccc1-c1cc2cc(NC(=O)C3C[C@@H]3F)ncc2c(N)c1F` (some centres unmarked) [Compound C6], the IC50 at GCK [2] was 0.01 to 0.1 µM; on HPK1 [3], ≤ 0.01 µM; on PDK1 [4] it was > 1 µM; on TNIK [5] it was 0.01 to 0.1 µM.
On to `Cn1cccc1-c1cc2cc(NC(=O)[C@@H]3C[C@@H]3F)ncc2c(N)c1F` [DD02001A cis, (1S,2S)—N-(8-amino-7-fluoro-6-(1-methyl-1H-pyrrole-2-yl)isoquinolin-3-yl)-2-fluorocyclopropane-1-carboxamide], for which the IC50 is < 10 nM at HPK1 [8], > 10 nM on GCK [9], > 10 nM on TNIK [10] and > 7000 nM at PDK1 [11].
Take `CN1CCN(c2ccc(Nc3ncc4cccc(OC5CCC(O)CC5)c4n3)nc2)CC1` (centres unmarked) [Example 7, 4-((2-((5-(4-methylpiperazin-1-yl)pyridin-2-yl)amino)quinazolin-8-yl)oxo)cyclohexan-1-ol]: the IC50 on HPK1 [1] was < 0.3 µM.
Same read-out and setting: with `COCCOc1cccc2cnc(Nc3ccc(N4CCN(C)CC4)cc3)nc12` [Example 5, 8-(2-methoxyethoxy)-N-(4-(4-methylpiperazin-1-yl)phenyl)quinazolin-2-amine] the figure was < 0.2 µM.
`CN1CCN(c2ccc(Nc3ncc4cccc(O[C@H]5CC[C@@H](O)CC5)c4n3)cc2)CC1` [Compound C4]: the IC50 was 0.01 to 0.1 µM at GCK [2], 0.01 to 0.1 µM at HPK1 [3], > 1 µM at PDK1 [4] and 0.01 to 0.1 µM at TNIK [5].
With `CN1CCN(c2ccc(Nc3ncc4cccc(OC5CCC(O)C5)c4n3)cc2)CC1` (centres unmarked) [Example 6], the IC50 on HPK1 [1] was < 0.1 µM.
